Measured values: BigSolDB 2.1

CC(=O)N[C@@H](C=O)[C@@H](O)[C@H](O)[C@H](O)CO
solubility (mole fraction)
Conditions	283.15 K	288.15 K	293.15 K	298.15 K	303.15 K	308.15 K	313.15 K
in acetone	4.1e-05	7.2e-05	8.7e-05	0.000115	0.000161	0.000193	0.000241
in ethanol	0.000166	0.000223	0.000242	0.000268	0.000313	0.000342	0.000382
in methanol	0.000634	0.0007	0.000808	0.000907	0.00109	0.00136	0.00157
in n-propanol	7.3e-05	8.5e-05	0.000115	0.000166	0.000241	0.000324	0.000392
in water	0.0219	0.0236	0.0257	0.028	0.0302	0.0324	0.0344
